In the supplement of paper PMC13380429:

What was measured:
Details in all cases: 72 h
Vero E6 [1] = test: cell viability relative to DMSO; higher = less toxic
U2OS [2] = test: as above
HepG2 [3] = test: as above
Caco-2 [4] = test: as above
Calu-3 [5] = test: as above
Vero E6 [6] = test: relative viability EC50 (midpoint between 100% and the lowest measured viability); higher = less toxic
U2OS [7] = test: as above
HepG2 [8] = test: as above
Caco-2 [9] = test: as above
Calu-3 [10] = test: as above
Vero E6 [11] = test: drug sensitivity score (DSS) for viability; higher = more toxic; extreme values may be limits of the assay
U2OS [12] = test: as above
HepG2 [13] = test: as above
Caco-2 [14] = test: as above
Calu-3 [15] = test: as above

| SMILES | cell viability (Vero E6 [1]; 1 nM) [%] | cell viability (Vero E6 [1]; 10 nM) [%] | cell viability (Vero E6 [1]; 100 nM) [%] | cell viability (Vero E6 [1]; 1000 nM) [%] | cell viability (Vero E6 [1]; 10000 nM) [%] | cell viability (U2OS [2]; 1 nM) [%] | cell viability (U2OS [2]; 10 nM) [%] | cell viability (U2OS [2]; 100 nM) [%] | cell viability (U2OS [2]; 1000 nM) [%] | cell viability (U2OS [2]; 10000 nM) [%] | cell viability (HepG2 [3]; 1 nM) [%] | cell viability (HepG2 [3]; 10 nM) [%] | cell viability (HepG2 [3]; 100 nM) [%] | cell viability (HepG2 [3]; 1000 nM) [%] | cell viability (HepG2 [3]; 10000 nM) [%] | cell viability (Caco-2 [4]; 1 nM) [%] | cell viability (Caco-2 [4]; 10 nM) [%] | cell viability (Caco-2 [4]; 100 nM) [%] | cell viability (Caco-2 [4]; 1000 nM) [%] | cell viability (Caco-2 [4]; 10000 nM) [%] | cell viability (Calu-3 [5]; 1 nM) [%] | cell viability (Calu-3 [5]; 10 nM) [%] | cell viability (Calu-3 [5]; 100 nM) [%] | cell viability (Calu-3 [5]; 1000 nM) [%] | cell viability (Calu-3 [5]; 10000 nM) [%] | relative viability EC50 (Vero E6 [6]) [µM] | relative viability EC50 (U2OS [7]) [µM] | relative viability EC50 (HepG2 [8]) [µM] | relative viability EC50 (Caco-2 [9]) [µM] | relative viability EC50 (Calu-3 [10]) [µM] | drug sensitivity score (Vero E6 [11]) | drug sensitivity score (U2OS [12]) | drug sensitivity score (HepG2 [13]) | drug sensitivity score (Caco-2 [14]) | drug sensitivity score (Calu-3 [15]) |
| --- | --- | --- | --- | --- | --- | --- | --- | --- | --- | --- | --- | --- | --- | --- | --- | --- | --- | --- | --- | --- | --- | --- | --- | --- | --- | --- | --- | --- | --- | --- | --- | --- | --- | --- | --- |
| CC(C(=O)O)c1ccc(CC2CCCC2=O)cc1 (stereo not given) [loxoprofen] | 106 | 97.4 | 98.4 | 92.8 | 94.2 | 108 | 92.7 | 98.3 | 94.8 | 96.9 | 92.1 | 104 | 97 | 108 | 94.3 | 98.6 | 90 | 97.1 | 88.1 | 96 | 101 | 110 | 104 | 108 | 93.6 | > 10 | > 10 | > 10 | > 10 | > 10 | 0 | 0 | 0 | 0 | 0 |
| Cc1ccccc1C(=O)Nc1ccc(C(=O)N2CCCC(O)c3cc(Cl)ccc32)c(C)c1 (stereo not given) [tolvaptan] | 99.4 | 100 | 93.4 | 98.3 | 104 | 94.2 | 92.1 | 103 | 97.4 | 96.7 | 99.7 | 93 | 96.4 | 106 | 110 | 100 | 96.4 | 90.1 | 89.8 | 94.1 | 91 | 86.3 | 91.7 | 78.8 | 102 | > 10 | > 10 | > 10 | > 10 | > 10 | 0 | 0 | 0 | 0.1 | 0.5 |
| COC(=O)C[C@H]1CC(c2ccc(O)cc2)=NO1 [ISO-1] | 106 | 99.7 | 97.1 | 101 | 98.5 | 95.2 | 98.9 | 96.1 | 106 | 96.8 | 104 | 102 | 102 | 103 | 94.6 | 102 | 103 | 96.9 | 93.5 | 109 | 100 | 109 | 104 | 99.5 | 109 | > 10 | > 10 | > 10 | > 10 | > 10 | 0 | 0 | 0 | 0 | 0 |
| O=C(O)Cn1c(C(=O)Nc2nc(-c3ccccc3Cl)cs2)cc2ccccc21 | 105 | 106 | 103 | 108 | 97.4 | 96 | 101 | 95.6 | 101 | 98.5 | 106 | 99.2 | 101 | 104 | 93.3 | 103 | 99.9 | 95.1 | 89.5 | 110 | 100 | 92.5 | 99.4 | 103 | 102 | > 10 | > 10 | > 10 | > 10 | > 10 | 0 | 0 | 0 | 0 | 0 |
